Assay results as given in ChEMBL document CHEMBL1201862, “PubChem BioAssay data set” (2004).
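A five-concentration, 48-hour dose response in 96-well plates underlies each endpoint, interpolated linearly between surrounding concentrations. Here, GI50 denotes the concentration required for 50% inhibition of growth.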 Active and inactive are the calls of the source. Rule as the data show it: active = GI50 up to about 1.1 µM and inactive = higher.

Assays:
Assay in all cases: growth of human tumour cells (NCI), 48 h
[1] = test system: SF-295
[2] = test system: CCRF-CEM
[3] = test system: OVCAR-8
[4] = test system: EKVX
[5] = test system: OVCAR-3
[6] = test system: HT-29
[7] = test system: SK-OV-3
[8] = test system: OVCAR-5
[9] = test system: SW-620
[10] = test system: UO-31
[11] = test system: SR
[12] = test system: SK-MEL-2
[13] = test system: SF-539
[14] = test system: HCT-116
[15] = test system: OVCAR-4
[16] = test system: CAKI-1
[17] = test system: SK-MEL-28

Structure (SMILES)	GI50 [1]	GI50 [2]	GI50 [3]	GI50 [4]	GI50 [5]	GI50 [6]	GI50 [7]	GI50 [8]	GI50 [9]	GI50 [10]	GI50 [11]	GI50 [12]	GI50 [13]	GI50 [14]	GI50 [15]	GI50 [16]	GI50 [17]
CC1(CO)OC1COCc1ccccc1 (stereo unspecified)	> 100 µM (inactive)	> 100 µM (inactive)	> 100 µM (inactive)	> 100 µM (inactive)	> 100 µM (inactive)	> 100 µM (inactive)	> 100 µM (inactive)	> 100 µM (inactive)	> 100 µM (inactive)	> 100 µM (inactive)	> 100 µM (inactive)	> 100 µM (inactive)	> 100 µM (inactive)	–	–	–	–
CCCCCCCCCCCCCCCC(=O)OCC1OC(n2cc(F)c(=O)[nH]c2=O)C(NC(=O)N(CCCl)N=O)C(O)C1O (stereo unspecified)	0.156 µM (active)	0.611 µM (active)	3.86 µM (inactive)	2.58 µM (inactive)	8.04 µM (inactive)	4.68 µM (inactive)	5.45 µM (inactive)	13.1 µM (inactive)	1.31 µM (inactive)	12.3 µM (inactive)	–	1.35 µM (inactive)	0.122 µM (active)	1.22 µM (inactive)	7.96 µM (inactive)	4.78 µM (inactive)	2.37 µM (inactive)
COc1cc(-c2cccs2)sc1-c1cccs1	23.3 µM (inactive)	29.3 µM (inactive)	97.1 µM (inactive)	6.55 µM (inactive)	63.8 µM (inactive)	20.7 µM (inactive)	31 µM (inactive)	22.3 µM (inactive)	71.1 µM (inactive)	38.2 µM (inactive)	17.7 µM (inactive)	31.5 µM (inactive)	73.8 µM (inactive)	28.6 µM (inactive)	50.2 µM (inactive)	–	34 µM (inactive)
S=c1sc2c(Cl)nc(Cl)nc2n1-c1ccccc1	> 100 µM (inactive)	23.1 µM (inactive)	36.6 µM (inactive)	61 µM (inactive)	22.9 µM (inactive)	33 µM (inactive)	> 100 µM (inactive)	> 100 µM (inactive)	27.2 µM (inactive)	> 100 µM (inactive)	22.3 µM (inactive)	31.7 µM (inactive)	> 100 µM (inactive)	16.4 µM (inactive)	41.3 µM (inactive)	> 100 µM (inactive)	15.6 µM (inactive)
C=CCCCCCCCCC(=O)NS(=O)(=O)c1ccccc1	> 100 µM (inactive)	–	> 100 µM (inactive)	> 100 µM (inactive)	> 100 µM (inactive)	> 100 µM (inactive)	> 100 µM (inactive)	> 100 µM (inactive)	> 100 µM (inactive)	30.7 µM (inactive)	–	> 100 µM (inactive)	> 100 µM (inactive)	93.8 µM (inactive)	> 100 µM (inactive)	> 100 µM (inactive)	99.3 µM (inactive)
CC(=O)NNc1nc(C)c(C(=O)NNC(=O)C(=O)Nc2ccc(C)cc2[N+](=O)[O-])s1	> 100 µM (inactive)	46.1 µM (inactive)	> 100 µM (inactive)	> 100 µM (inactive)	47.8 µM (inactive)	> 100 µM (inactive)	> 100 µM (inactive)	> 100 µM (inactive)	> 100 µM (inactive)	> 100 µM (inactive)	65.2 µM (inactive)	> 100 µM (inactive)	> 100 µM (inactive)	> 100 µM (inactive)	> 100 µM (inactive)	> 100 µM (inactive)	> 100 µM (inactive)
CCCCC(C(=O)CCC(=O)Nc1ccc(Cl)c(Cl)c1)C(=O)C(C)C (stereo unspecified)	85.3 µM (inactive)	> 100 µM (inactive)	> 100 µM (inactive)	> 100 µM (inactive)	> 100 µM (inactive)	> 100 µM (inactive)	> 100 µM (inactive)	32.3 µM (inactive)	> 100 µM (inactive)	> 100 µM (inactive)	> 100 µM (inactive)	95.5 µM (inactive)	> 100 µM (inactive)	> 100 µM (inactive)	> 100 µM (inactive)	> 100 µM (inactive)	> 100 µM (inactive)
COc1ccc(C2Oc3c(cc(O)c(OC)c3C)[C@@H]2C)cc1OC (stereo partly specified)	> 100 µM (inactive)	78.5 µM (inactive)	> 100 µM (inactive)	> 100 µM (inactive)	> 100 µM (inactive)	> 100 µM (inactive)	> 100 µM (inactive)	> 100 µM (inactive)	71 µM (inactive)	66.5 µM (inactive)	–	> 100 µM (inactive)	> 100 µM (inactive)	> 100 µM (inactive)	42.4 µM (inactive)	37.2 µM (inactive)	> 100 µM (inactive)
O=C(Nc1nnn[nH]1)c1nc(O)cc(-c2ccccc2)n1	> 100 µM (inactive)	> 100 µM (inactive)	> 100 µM (inactive)	> 100 µM (inactive)	> 100 µM (inactive)	> 100 µM (inactive)	> 100 µM (inactive)	> 100 µM (inactive)	> 100 µM (inactive)	> 100 µM (inactive)	> 100 µM (inactive)	> 100 µM (inactive)	–	> 100 µM (inactive)	> 100 µM (inactive)	> 100 µM (inactive)	> 100 µM (inactive)
COc1ccc(/C=C2\C(=O)N(C(=O)c3ccc(NC(C)=O)cc3)N=C2C)cc1OC	> 100 µM (inactive)	> 100 µM (inactive)	> 100 µM (inactive)	> 100 µM (inactive)	> 100 µM (inactive)	> 100 µM (inactive)	–	> 100 µM (inactive)	> 100 µM (inactive)	> 100 µM (inactive)	> 100 µM (inactive)	> 100 µM (inactive)	> 100 µM (inactive)	> 100 µM (inactive)	> 100 µM (inactive)	> 100 µM (inactive)	> 100 µM (inactive)
CCOC(=O)C1(Cc2ccccc2)CCCCCN1 (stereo unspecified)	> 100 µM (inactive)	–	> 100 µM (inactive)	> 100 µM (inactive)	> 100 µM (inactive)	> 100 µM (inactive)	> 100 µM (inactive)	–	> 100 µM (inactive)	> 100 µM (inactive)	–	–	–	–	> 100 µM (inactive)	> 100 µM (inactive)	> 100 µM (inactive)
Oc1cc(-c2ccc[nH]2)nc2cc3c(cc12)OCO3	–	24.1 µM (inactive)	46.7 µM (inactive)	55.3 µM (inactive)	–	29.8 µM (inactive)	–	–	21.6 µM (inactive)	56.5 µM (inactive)	37.2 µM (inactive)	48.3 µM (inactive)	29.6 µM (inactive)	–	21 µM (inactive)	–	65.2 µM (inactive)
Nc1nc(N)c2ncn(CCCC(c3ccccc3)P(=O)(O)O)c2n1 (stereo unspecified)	> 100 µM (inactive)	> 100 µM (inactive)	> 100 µM (inactive)	–	> 100 µM (inactive)	> 100 µM (inactive)	> 100 µM (inactive)	> 100 µM (inactive)	> 100 µM (inactive)	> 100 µM (inactive)	> 100 µM (inactive)	> 100 µM (inactive)	> 100 µM (inactive)	> 100 µM (inactive)	–	> 100 µM (inactive)	> 100 µM (inactive)
COC(=O)Nc1nc2cc(Br)ccc2[nH]1	30.7 µM (inactive)	32.2 µM (inactive)	32.6 µM (inactive)	> 100 µM (inactive)	28.5 µM (inactive)	16 µM (inactive)	27.5 µM (inactive)	60.1 µM (inactive)	37 µM (inactive)	> 100 µM (inactive)	6.44 µM (inactive)	16.1 µM (inactive)	22.6 µM (inactive)	57 µM (inactive)	> 100 µM (inactive)	–	> 100 µM (inactive)
CCOC(=O)C1S/C(=N/c2ccc(Cl)cc2C)N=C1C (stereo unspecified)	23.8 µM (inactive)	–	28.1 µM (inactive)	32.2 µM (inactive)	20.8 µM (inactive)	16.1 µM (inactive)	–	18.1 µM (inactive)	22.3 µM (inactive)	17.3 µM (inactive)	–	16.4 µM (inactive)	17.6 µM (inactive)	15.1 µM (inactive)	19.9 µM (inactive)	20.7 µM (inactive)	25.2 µM (inactive)
CCOC(=O)C1=C(C)N(NC(N)=O)C2(N)N(NC(N)=O)C(C)=C(C(=O)OCC)C12C(=O)OCC (stereo unspecified)	> 100 µM (inactive)	–	> 100 µM (inactive)	> 100 µM (inactive)	> 100 µM (inactive)	> 100 µM (inactive)	> 100 µM (inactive)	> 100 µM (inactive)	> 100 µM (inactive)	> 100 µM (inactive)	> 100 µM (inactive)	> 100 µM (inactive)	> 100 µM (inactive)	> 100 µM (inactive)	> 100 µM (inactive)	> 100 µM (inactive)	> 100 µM (inactive)
Cc1cc(N(CCC#N)S(=O)(=O)c2ccccc2)ccc1/C=C1N=C(/C=C/c2ccccc2)OC\1=O	> 100 µM (inactive)	> 100 µM (inactive)	> 100 µM (inactive)	> 100 µM (inactive)	> 100 µM (inactive)	> 100 µM (inactive)	> 100 µM (inactive)	> 100 µM (inactive)	> 100 µM (inactive)	70.8 µM (inactive)	–	> 100 µM (inactive)	> 100 µM (inactive)	> 100 µM (inactive)	–	> 100 µM (inactive)	> 100 µM (inactive)
COc1ccc(C=O)c([N+](=O)[O-])c1	21 µM (inactive)	4.51 µM (inactive)	31.6 µM (inactive)	99.5 µM (inactive)	27.9 µM (inactive)	16.9 µM (inactive)	> 100 µM (inactive)	–	8.24 µM (inactive)	37.7 µM (inactive)	–	35.2 µM (inactive)	20.4 µM (inactive)	4.09 µM (inactive)	76.6 µM (inactive)	–	> 100 µM (inactive)
